From patent US10004732B2 (Novartis AG, priority 2014, dated 2018)

Experiments:
[1] = test system: IL-8-induced neutrophil shape change in human whole blood; assay: Whole blood neutrophil shape change assay (L); type: cell-based; conditions: Homo sapiens, Neutrophil, IL-8, human whole blood, read-out: Assay L WBSC IC50
PI 3-kinase alpha [2] = target: T1, PI 3-kinase alpha (Homo sapiens, UniProt P42336); assay: Kinase Glo Luminescent Kinase Assay (Kglo), assay A; type: biochemical; conditions: read-out: Assay A PI3Kα IC50
Target sequence in this assay (P42336 whole entry): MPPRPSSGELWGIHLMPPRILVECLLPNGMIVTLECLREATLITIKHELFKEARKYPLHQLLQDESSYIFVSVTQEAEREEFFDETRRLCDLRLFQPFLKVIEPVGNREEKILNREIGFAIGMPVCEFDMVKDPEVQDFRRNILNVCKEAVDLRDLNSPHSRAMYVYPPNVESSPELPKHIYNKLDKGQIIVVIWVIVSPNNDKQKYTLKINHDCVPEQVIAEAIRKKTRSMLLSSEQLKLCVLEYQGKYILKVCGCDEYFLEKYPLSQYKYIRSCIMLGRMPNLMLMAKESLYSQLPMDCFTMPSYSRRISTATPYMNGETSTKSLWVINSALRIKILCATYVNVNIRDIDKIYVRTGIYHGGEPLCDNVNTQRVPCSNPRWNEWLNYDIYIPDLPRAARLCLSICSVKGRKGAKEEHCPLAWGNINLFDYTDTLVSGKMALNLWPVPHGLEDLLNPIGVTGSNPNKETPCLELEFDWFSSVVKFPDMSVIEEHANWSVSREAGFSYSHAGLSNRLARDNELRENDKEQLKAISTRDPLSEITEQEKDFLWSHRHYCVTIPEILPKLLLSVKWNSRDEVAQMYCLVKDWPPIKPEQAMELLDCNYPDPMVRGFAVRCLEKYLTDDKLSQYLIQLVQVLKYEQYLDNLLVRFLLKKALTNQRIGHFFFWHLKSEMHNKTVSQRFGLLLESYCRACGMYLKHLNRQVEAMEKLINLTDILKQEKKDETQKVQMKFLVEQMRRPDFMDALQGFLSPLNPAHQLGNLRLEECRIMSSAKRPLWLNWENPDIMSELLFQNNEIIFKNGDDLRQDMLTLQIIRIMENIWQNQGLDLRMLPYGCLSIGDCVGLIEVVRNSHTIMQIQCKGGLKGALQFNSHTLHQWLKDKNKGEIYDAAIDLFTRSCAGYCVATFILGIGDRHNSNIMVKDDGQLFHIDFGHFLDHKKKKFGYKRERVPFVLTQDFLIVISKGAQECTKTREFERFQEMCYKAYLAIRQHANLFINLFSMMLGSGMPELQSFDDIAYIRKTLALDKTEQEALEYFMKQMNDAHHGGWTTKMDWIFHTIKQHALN

PI 3-kinase gamma [3] = target: T2, PI 3-kinase gamma (Homo sapiens, UniProt P48736); assay: TR-FRET Adapta assay, assay E; type: biochemical; conditions: read-out: Assay E PI3Kγ IC50
PI 3-kinase gamma [4] = target: T2, PI 3-kinase gamma; assay: Cellular U937 AKT assay K1 (MSD); type: cell-based; conditions: U937 cells, K1 format; read-out: Assay K1 PI3Kγ IC50
PI 4-kinase beta = PI 4-kinase beta (Homo sapiens, UniProt Q9UBF8); assay: Kinase Glo Luminescent Kinase Assay (Kglo), assay D; type: biochemical; conditions: read-out: Assay D PI4Kβ IC50
PI 3-kinase delta [5] = target: T3, PI 3-kinase delta (Homo sapiens, UniProt O00329); assay: Cellular assay J1, p-Akt (S473) in Rat-1 cells, Surefire format; type: cell-based; conditions: non-asterisked data: version J1 (Surefire format), Rat-1 cells; read-out: Assay J PI3Kδ IC50
Target sequence in this assay (O00329 whole entry): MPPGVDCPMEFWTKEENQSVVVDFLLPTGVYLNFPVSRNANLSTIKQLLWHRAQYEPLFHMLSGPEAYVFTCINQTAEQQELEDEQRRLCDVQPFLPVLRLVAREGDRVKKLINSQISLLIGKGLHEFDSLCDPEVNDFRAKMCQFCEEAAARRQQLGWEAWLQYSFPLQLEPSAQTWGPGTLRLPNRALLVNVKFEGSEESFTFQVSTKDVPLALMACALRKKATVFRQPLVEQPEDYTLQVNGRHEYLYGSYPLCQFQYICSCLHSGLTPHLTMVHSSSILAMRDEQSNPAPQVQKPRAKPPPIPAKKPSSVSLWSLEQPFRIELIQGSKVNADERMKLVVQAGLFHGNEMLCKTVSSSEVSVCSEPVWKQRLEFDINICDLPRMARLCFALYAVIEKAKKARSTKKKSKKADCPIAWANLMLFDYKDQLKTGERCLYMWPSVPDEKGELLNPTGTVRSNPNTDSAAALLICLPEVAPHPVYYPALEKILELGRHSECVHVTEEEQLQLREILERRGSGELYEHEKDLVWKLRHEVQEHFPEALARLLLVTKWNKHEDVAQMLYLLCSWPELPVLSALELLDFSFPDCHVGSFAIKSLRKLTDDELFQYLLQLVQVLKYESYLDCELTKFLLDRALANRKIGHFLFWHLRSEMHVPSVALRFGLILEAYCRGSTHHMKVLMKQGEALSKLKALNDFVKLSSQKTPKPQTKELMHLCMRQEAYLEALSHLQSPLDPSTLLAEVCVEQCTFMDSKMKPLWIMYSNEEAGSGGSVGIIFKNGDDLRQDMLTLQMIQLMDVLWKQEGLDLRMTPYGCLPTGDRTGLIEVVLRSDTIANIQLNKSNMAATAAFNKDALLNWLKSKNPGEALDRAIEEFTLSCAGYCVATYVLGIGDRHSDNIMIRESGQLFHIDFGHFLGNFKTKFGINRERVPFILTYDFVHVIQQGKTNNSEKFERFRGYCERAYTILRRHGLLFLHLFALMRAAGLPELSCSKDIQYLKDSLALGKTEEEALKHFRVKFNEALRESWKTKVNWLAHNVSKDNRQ
Target sequence in this assay (Q63787 whole entry partner): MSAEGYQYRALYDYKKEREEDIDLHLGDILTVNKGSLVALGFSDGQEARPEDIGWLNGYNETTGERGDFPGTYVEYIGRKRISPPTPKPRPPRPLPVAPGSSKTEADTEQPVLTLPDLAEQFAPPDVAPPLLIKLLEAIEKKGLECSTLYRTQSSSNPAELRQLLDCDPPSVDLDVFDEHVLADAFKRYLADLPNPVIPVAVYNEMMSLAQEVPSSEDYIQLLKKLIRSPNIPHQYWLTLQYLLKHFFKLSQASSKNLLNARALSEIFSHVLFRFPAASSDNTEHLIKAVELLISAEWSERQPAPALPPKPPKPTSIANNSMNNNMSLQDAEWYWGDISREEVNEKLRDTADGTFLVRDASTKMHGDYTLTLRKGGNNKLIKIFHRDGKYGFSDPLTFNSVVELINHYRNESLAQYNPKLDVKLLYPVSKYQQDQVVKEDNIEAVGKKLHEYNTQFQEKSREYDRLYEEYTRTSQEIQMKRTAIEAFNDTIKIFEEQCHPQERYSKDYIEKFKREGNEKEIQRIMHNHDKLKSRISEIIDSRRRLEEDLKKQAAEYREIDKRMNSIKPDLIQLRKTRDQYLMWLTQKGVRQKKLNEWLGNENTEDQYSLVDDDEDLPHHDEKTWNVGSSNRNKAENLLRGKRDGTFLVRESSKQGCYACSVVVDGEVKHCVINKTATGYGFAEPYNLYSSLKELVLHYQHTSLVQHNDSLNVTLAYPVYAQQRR

Vps34 = Vps34 (Homo sapiens, UniProt Q8NEB9); assay: Kinase Glo Luminescent Kinase Assay (Kglo), assay C; type: biochemical; conditions: read-out: Assay C VPS34 IC50
PI 3-kinase beta [6] = target: T4, PI 3-kinase beta (Homo sapiens, UniProt P42338); assay: Cellular assay I1, p-Akt (S473) in Rat-1 cells, Surefire format; type: cell-based; conditions: non-asterisked data: version I1 (Surefire format), Rat-1 cells; read-out: Assay I PI3Kβ IC50
PI 3-kinase alpha [7] = target: T1, PI 3-kinase alpha; assay: Cellular assay H1, p-Akt (S473) in Rat-1 cells, Surefire format; type: cell-based; conditions: non-asterisked data: version H1 (Surefire format), Rat-1 cells; read-out: Assay H PI3Kα IC50
Target sequence in this assay (P42336 whole entry): as the sequence (P42336 whole entry) above
Target sequence in this assay (Q63787 whole entry partner): as the sequence (Q63787 whole entry partner) above

[8] = Microsomal clearance assay (M); conditions: intrinsic clearance in rat liver microsomes
Procedure: The experiments were performed in 96-well glass plates at 37° C. on an automated Tecan EVO platform. Test compounds at a concentration of 10 mM in pure DMSO were diluted 1:1000 in water to 10 μM. […] Reactions were initiated by the addition of 150 μL of a cofactor solution containing 2 mM NADPH.

mTOR = mTOR (Homo sapiens, UniProt P42345); assay: Lanthascreen kinase binding assay, assay G; conditions: read-out: Assay G mTOR IC50
Procedure: Lanthascreen™ Kinase Binding Assay for mTOR (G)
Binding of an inhibitor to the kinase competes for binding with the tracer, resulting in a loss of FRET.
50 nL of compound dilutions were dispensed onto white 384-well small volume polystyrene plate.

PI 3-kinase beta [9] = target: T4, PI 3-kinase beta; assay: Kinase Glo Luminescent Kinase Assay (Kglo), assay B; type: biochemical; conditions: read-out: Assay B PI3Kβ IC50
PI 3-kinase delta [10] = target: T3, PI 3-kinase delta; assay: TR-FRET Adapta assay, assay F; conditions: read-out: Assay F PI3Kδ IC50
Target sequence in this assay (O00329 whole entry): as the sequence (O00329 whole entry) above
Target sequence in this assay (P27986 461-568 partner): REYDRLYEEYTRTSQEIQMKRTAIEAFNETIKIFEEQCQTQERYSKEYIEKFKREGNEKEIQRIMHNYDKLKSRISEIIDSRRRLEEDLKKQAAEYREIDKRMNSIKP

T2 sequence (P48736 whole entry): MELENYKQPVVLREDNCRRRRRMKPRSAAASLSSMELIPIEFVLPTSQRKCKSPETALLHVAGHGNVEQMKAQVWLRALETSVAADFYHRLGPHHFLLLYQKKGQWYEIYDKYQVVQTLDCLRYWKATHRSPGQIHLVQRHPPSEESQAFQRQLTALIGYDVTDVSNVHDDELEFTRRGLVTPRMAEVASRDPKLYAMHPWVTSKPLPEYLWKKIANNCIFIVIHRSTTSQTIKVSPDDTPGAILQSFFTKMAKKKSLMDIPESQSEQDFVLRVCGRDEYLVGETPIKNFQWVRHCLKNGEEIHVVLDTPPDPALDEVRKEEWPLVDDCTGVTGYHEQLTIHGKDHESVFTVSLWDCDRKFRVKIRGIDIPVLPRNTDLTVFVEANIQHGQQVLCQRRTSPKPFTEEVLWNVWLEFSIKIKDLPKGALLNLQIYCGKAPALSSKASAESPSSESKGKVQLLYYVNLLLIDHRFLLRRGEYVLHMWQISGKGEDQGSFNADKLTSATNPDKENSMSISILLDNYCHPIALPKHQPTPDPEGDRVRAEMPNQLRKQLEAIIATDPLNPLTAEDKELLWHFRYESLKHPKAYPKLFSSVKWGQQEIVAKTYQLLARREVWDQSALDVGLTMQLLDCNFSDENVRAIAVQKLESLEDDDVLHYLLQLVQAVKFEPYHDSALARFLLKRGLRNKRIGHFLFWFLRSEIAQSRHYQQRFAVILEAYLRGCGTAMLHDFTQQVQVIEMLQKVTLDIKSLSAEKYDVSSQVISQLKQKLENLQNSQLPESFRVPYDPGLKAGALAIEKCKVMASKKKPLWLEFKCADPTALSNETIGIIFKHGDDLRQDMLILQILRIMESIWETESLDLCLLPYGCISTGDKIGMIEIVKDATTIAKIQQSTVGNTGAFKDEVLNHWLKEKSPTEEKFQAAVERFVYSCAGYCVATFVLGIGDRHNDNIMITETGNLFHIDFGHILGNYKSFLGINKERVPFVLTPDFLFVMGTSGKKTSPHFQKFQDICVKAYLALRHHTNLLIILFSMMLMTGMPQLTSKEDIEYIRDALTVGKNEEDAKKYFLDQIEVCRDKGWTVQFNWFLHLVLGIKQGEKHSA
Chain of PI 4-kinase beta (Q9UBF8 whole entry): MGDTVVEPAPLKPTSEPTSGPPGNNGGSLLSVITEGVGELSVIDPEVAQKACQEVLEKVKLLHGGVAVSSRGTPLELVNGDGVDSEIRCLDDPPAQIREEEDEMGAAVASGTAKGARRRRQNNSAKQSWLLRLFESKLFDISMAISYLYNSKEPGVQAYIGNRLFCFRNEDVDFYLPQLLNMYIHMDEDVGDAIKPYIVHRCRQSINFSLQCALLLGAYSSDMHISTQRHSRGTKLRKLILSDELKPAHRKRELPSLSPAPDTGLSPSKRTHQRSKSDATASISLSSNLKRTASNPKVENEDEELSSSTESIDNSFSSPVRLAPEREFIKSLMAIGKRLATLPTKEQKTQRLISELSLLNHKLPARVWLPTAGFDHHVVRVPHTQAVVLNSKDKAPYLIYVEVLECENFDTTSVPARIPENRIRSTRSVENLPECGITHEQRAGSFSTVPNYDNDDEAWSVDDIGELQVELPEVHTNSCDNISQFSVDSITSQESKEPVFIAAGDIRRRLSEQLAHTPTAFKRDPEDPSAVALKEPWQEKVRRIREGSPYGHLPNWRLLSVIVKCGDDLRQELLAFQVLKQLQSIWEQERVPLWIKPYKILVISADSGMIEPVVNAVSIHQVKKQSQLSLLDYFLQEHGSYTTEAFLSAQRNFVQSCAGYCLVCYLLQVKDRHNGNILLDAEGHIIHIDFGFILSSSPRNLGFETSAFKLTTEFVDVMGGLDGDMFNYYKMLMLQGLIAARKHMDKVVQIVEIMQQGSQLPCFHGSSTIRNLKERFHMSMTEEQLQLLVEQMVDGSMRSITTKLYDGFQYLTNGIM

Row | SMILES | IC50 [1] [nM] | IC50 (PI 3-kinase alpha [2]) [nM] | IC50 (PI 3-kinase gamma [3]) [nM] | IC50 (PI 3-kinase gamma [4]) [nM] | IC50 (PI 4-kinase beta) [nM] | IC50 (PI 3-kinase delta [5]) [nM] | IC50 (Vps34) [nM] | IC50 (PI 3-kinase beta [6]) [nM] | IC50 (PI 3-kinase alpha [7]) [nM] | Assay M RLM CI(int) [8] [µL/min/mg] | IC50 (mTOR) [nM] | IC50 (PI 3-kinase beta [9]) [nM] | IC50 (PI 3-kinase delta [10]) [nM]
1 | Cc1ccc(S(=O)(=O)NCCC(C)(C)O)cc1-c1cnc(N)c(-c2cn[nH]c2)n1 [Example 119.33] | 601 | 160 | 14 | 730 | 1000 | 3590 | > 9100 | > 10000 | 5510 | 50 | > 9100 | 690 | 260
2 | CCn1cc(-c2nc(-c3cc(S(=O)(=O)NCCC(C)(C)O)ccc3C)cnc2N)cn1 [Example 119.34] | 1490 | 180 | 13 | 41 | 4250 | 1270 | > 9100 | 7420 | 2270 | 49 | 6590 | 3510 | 220
3 | Cc1ccc(S(=O)(=O)NCCC(C)(C)O)cc1-c1cnc(N)c(-c2cnn(Cc3ccccn3)c2)n1 [Example 119.37] | 581 | 180 | 24 | 93 | 5300 | 1140 | > 9100 | 2870 | 3020 | 78 | > 9100 | 3000 | 40
4 | Cc1ccc(S(=O)(=O)NOCC(C)(C)O)cc1-c1cnc(N)c(-c2cn(C)nc2C)n1 [Example 125, 3-(5-Amino-6-(1,3-dimethyl-1H-pyrazol-4-yl)pyrazin-2-yl)-N-(2-hydroxy-2-methylpropoxy)-4-methylbenzenesulfonamide] | 879 | 280 | 100 | 51 | 7600 | 230 | > 10000 | 3470 | 2810 | 8 | > 10000 | 6000 | 130
5 | CCN1CCC[C@@H]1CNS(=O)(=O)c1ccc(C)c(-c2cnc(N)c(-n3cncn3)n2)c1 [Example 127.12] | 1210 | 3500 | 91 | 359 | > 10000 | 800 | > 10000 | 1540 | 6560 | 233 | > 10000 | 1500 | 570
6 | Cc1ccc(S(=O)(=O)NCC2(CO)CCCCC2)cc1-c1cnc(N)c(-n2cncn2)n1 [Example 127.52] | 1770 | 140 | 9 | 52 | 3100 | 1100 | > 10000 | 6280 | 970 | >924 | 3600 | 340 | 330
7 | Cc1cc(-c2nc(-c3cc(S(=O)(=O)NC4CCC(C)(O)CC4)ccc3C)cnc2N)ccn1 (centres unmarked) [Example 129.19, 3-(5-amino-6-(2-methylpyridin-4-yl)pyrazin-2-yl)-N-(4-hydroxy-4-methylcyclohexyl)-4-methylbenzenesulfonamide] | 3430 | 330 | 66 | 251 | 7200 | 4370 | > 9100 | > 10000 | 8580 | 21 | 3020 | 5110 | 470
8 | Cc1cc(-c2nc(-c3cc(S(=O)(=O)NCC4(O)COC4)ccc3C)cnc2N)ccn1 [Example 129.32, 3-(5-amino-6-(2-methylpyridin-4-yl)pyrazin-2-yl)-N-((3-hydroxyoxetan-3-yl)methyl)-4-methylbenzenesulfonamide] | 2000 | 2000 | 39 | 800 | > 9100 | > 10000 | > 9100 | > 10000 | > 10000 | 18 | > 9100 | 7000 | 1800
